For one compound, Kd results are on record in PMC6753139, “TRIM66 reads unmodified H3R2K4 and H3K56ac to respond to DNA damage in embryonic stem cells” (Nature Communications, 2019).

The test deals with T1, TRIM66-WT965-1160 (Homo sapiens, UniProt O15016).
T1 construct: ITC titration: titrating TRIM66-WT965-1160 with various histone H3 peptides; GST (N, cleaved yes); made in house; host or cells: Escherichia coli BL21 (DE3)
T1 sequence (O15016 1100-1295): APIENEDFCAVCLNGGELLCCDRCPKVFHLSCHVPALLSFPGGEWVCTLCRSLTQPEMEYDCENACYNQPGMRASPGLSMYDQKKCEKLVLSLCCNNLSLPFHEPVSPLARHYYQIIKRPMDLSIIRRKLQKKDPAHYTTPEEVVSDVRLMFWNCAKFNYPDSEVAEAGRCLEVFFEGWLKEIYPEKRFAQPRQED
As to the kind of experiment: ITC, PHD-Bromodomain wild type. Type of test: binding. As to conditions: ITC, MicroCal PEAQ-ITC, 25 °C, 20 mM Tris, 100 mM NaCl, pH 7.5; single measurement, error from curve fit; Weak binding = ITC curves cannot be fitted reliably; N.D. = no detectable binding. The source says: We next performed the glutathione S-transferase (GST) pulldown assays of the TRIM66-WT965-1160 against the calf thymus histones to verify the histone-binding ability of TRIM66 PHD-Bromodomain. […] The PHD of TRIM66 shared a low conservation with those of ING4, PHF2, and BPTF, and lacked the conserved aromatic residues, which were necessary for binding H3K4me2/3[40]–[42] (Supplementary Fig. 2b). Nevertheless, TRIM66 was highly conserved in sequence and structure with the PHDs of TRIM24 and TRIM33 (Fig. 1c and Supplementary Fig. 2b), which were reported to bind H3K4me0[5],[6]; thus, we speculated that the PHD of TRIM66 could bind H3K4me0. To verify this hypothesis, we performed isothermal titration calorimetry (ITC)-based binding assays. […] Based on previous researches reporting the acetyl-lysine binding partners of Bromodomain[3]–[12], we chose a series of related peptides derived from H3 and H4, to test their interactions with TRIM66-WT965-1160 by ITC experiments. […] We further found the acetylated state of K56 was necessary for this binding (Supplementary Fig. 3b).
We next titrated the TRIM66-WT965-1160 with a series of R2-methylated H3 peptides through ITC assays. […] This finding was consistent with the structural observation that each NηH atom of the R2 formed a hydrogen bond with residues in protein (Fig. 2d).
The DNA fragments of human TRIM66_968-1160, TRIM24_824-1006, and TRIM33_882-1087 were amplified from a human bone marrow cDNA library using a PCR-based cloning strategy. The fragments of TRIM66-WT968-1160 were inserted into a pGEX-4T-1 plasmid (GE Healthcare). The fragments of TRIM24_824-1006 and TRIM33_882-1087 were ligated into a pET-SUMO-28a (+) plasmid (Novagen). The DNA fragments of TRIM66-MUT968-1160 and TRIM66-WT965-1160 with codon optimization were synthesized by General Biosystems (sequence was shown in Supplementary Methods) and inserted into a pGEXT-4T-1 plasmid (GE Healthcare). Mutants of TRIM66 PHD-Bromo were generated through PCR using the Mutant Best kit (Takara). The mutation of point mutant based on the codon-optimized DNA sequence of TRIM66-WT965-1160. All constructs were expressed in Escherichia coli BL21 (DE3). The construct of ASF1a1-156 inserted into a pRSFDuet plasmid (courtesy of Ruiming Xu Lab, Institute of Biophysics, Chinese Academy of Sciences) was expressed in E. coli BL21 (DE3) RIL. The construct of full-length H4 inserted into a pET3a plasmid was expressed in E. coli BL21 (DE3). The expression of full-length histone H3K56ac was performed in BL21 (DE3) cells transformed with pBK-AxcKRS3 and pET22b encoding H3 with amber codons at the K56 site[12]. The DNA fragment of full-length TRIM66 was synthesized by General Biosystems and ligated into fugw vector (Addgene). See the information of protein sequence in Supplementary Table 1.
The calorimetric experiments were performed at 25 °C using a MicroCal PEAQ-ITC. The proteins were dialyzed using a buffer containing 20 mM Tris and 100 mM NaCl at pH 7.5. Lyophilized peptides were dissolved in the same buffer and adjusted to pH 7.5 prior to use. Peptide concentrations were estimated from the quantitative NMR experiments[73],[74]. ITC measurements were performed via injection of 0.7–4 mM peptide into a cell containing 0.12 mM TRIM24-PHD-Bromo, 0.05 mM TRIM33 PHD-Bromo, and 0.05 or 0.11–0.15 mM TRIM66-PHD-Bromo (or its mutants). The ITC data were subsequently analyzed using the MicroCal PEAQ-ITC analysis software.

`C[C@H](N)C(=O)N[C@@H](CCCNC(=N)N)C(=O)N[C@H](C(=O)N[C@@H](CCCCN)C(=O)N[C@@H](CCC(N)=O)C(=O)N[C@H](C(=O)N[C@@H](C)C(=O)N[C@@H](CCCNC(=N)N)C(=O)N[C@@H](CCCCN)C(=O)N[C@@H](CO)C(=O)N[C@H](C(=O)NCC(=O)O)[C@@H](C)O)[C@@H](C)O)[C@@H](C)O` [H3_1-12] gave a Kd of 15.7 ± 0.64 µM.
